Data from paper PMC12250893, “Systematic Characterization of In Vitro and In Vivo Metabolic Pathways and Identification of Novel Biomarkers of 26 Synthetic Cannabinoids” (Molecules, 2025).
Entries after “also recorded” stand apart in the source; their conditions may differ. Like-named read-outs stand apart in the source and are kept apart here.

Experiments:
[1] = Human liver microsomal incubation (in vitro metabolic model); conditions: for Conversion Rate: HLM, 37 °C 1 h, then UDPGA 30 min, peak area of parent in experimental group vs degradation control group; for most prevalent Phase II metabolic reaction / predominant Phase I metabolic reactions: human liver microsomal incubations
Protocol: Each of the 26 SCs was configured to 1 mg/mL with acetonitrile. The HLMs, NADPH regeneration solution A, regeneration solution B, and UDPGA solution were thawed at 4 °C. An icebox was prepared, and all additional steps were performed on ice. For this, 10 µL of NADPH regeneration solution A, 2 µL of regeneration solution B, 2 µL of SCs standard, and 10 µL of mixed human liver microsomes were added to 176 µL of 0.1 mol/L phosphate buffer. The mixture was mixed thoroughly and incubated at 37 °C for 1 h. Subsequently, 20 µL of UDPGA solution was added and mixed well, followed by an additional incubation for 30 min. The reaction was stopped by adding 200 µL of ice-cold acetonitrile. Additionally, the negative control group and the degradation control group were set up following the same procedure. […] The unadded components were supplemented with an equal amount of phosphate buffer. All samples were centrifuged at a high speed of 13,500 r for 10 min after reaction termination. The supernatant was collected and subsequently passed through a membrane filter (0.45 μm) prior to sampling.
The samples were separated and analyzed using a UHPLC-Q-Exactive Orbitrap MS system (Thermo Fisher Scientific, Waltham, MA, USA), which comprised a Thermo-Scientific™ Q-Exactive™(Thermo Fisher Scientific, Waltham, MA, USA) quadrupole electrostatic field orbitrap mass spectrometer coupled to a Vanquish ultrahigh-performance liquid chromatography (UHPLC) system (Thermo Fisher Scientific, Waltham, MA, USA) with a heated electrospray ionization HESI source in the positive ionization mode. The samples were separated on an ACQUITY UPLC BEH C18 Column (100 × 2.1 mm, 1.7 μm) with the column temperature maintained at 30 °C. The chromatographic separation was achieved using a gradient elution program with mobile phase A consisting of 0.1% formic acid in water and mobile phase B containing 0.1% formic acid in acetonitrile. The gradient profile was programmed as follows: Initial conditions were maintained at 5% B from 0 to 1 min, followed by a linear increase to 95% B from 1 to 11 min; the 95% B composition was held from 11 to 15.5 min, then decreased back to 5% B from 15.5 to 16 min, and finally maintained at 5% B from 16 to 18 min. The flow rate was set at 0.3 mL/min, and the injection volume was 10 μL for all analyses.
The following HESI source conditions were adopted: Acquisition mode was set to positive ion mode; the capillary temperature was maintained at 325 °C, the auxiliary gas heater temperature was set to 350 °C, and the spray voltage was applied at 3.7 kV. The mass spectrometry analysis was carried out in full-scan (FS) mode to trigger data-dependent acquisition in tandem mass spectrometry (FS-ddMS^2) mode. The FS data acquisition was performed using the following parameters: a resolution of 60,000, an automatic gain control (AGC) target of 1 × 10^6, a scan range of m/z 66.7–1000, and a maximum injection time (IT) of 250 ms. The ddMS^2 data acquisition was performed using the following parameters: a resolution of 30,000; an automatic gain control (AGC) target of 1 × 10^5; normalized collision energies (NCEs) of 20, 40, and 70 eV; and a maximum injection time (IT) of 50 ms.
Data acquisition was executed utilizing Xcalibur 4.3 software (Thermo Fisher Scientific, Waltham, MA, USA). The subsequent analysis of the acquired data was conducted using Thermo Fisher Scientific […] 3.2 software (Thermo Fisher Scientific, Waltham, MA, USA). The workflow’s nodes employed specific parameters: a mass tolerance of 5 ppm, a signal-to-noise threshold of 3, a minimum peak intensity of 1 × 10^5, a maximum peak width of 0.8 min, and a minimum of 3 scans per peak.

[2] = Rat metabolic model, metabolite identification; format: in vivo
Protocol: (§1) Sprague-Dawley male rats (200 ± 20 g) were obtained from SPF (Beijing) Biotechnology Co., Ltd. (Beijing, China). The animals were housed under controlled environmental conditions: Temperature was maintained at 20–25 °C, humidity at 50 ± 10%, and a 12/12 h light/dark cycle was applied. They had ad libitum access to standard laboratory chow and filtered water. A two-week acclimatization period was provided before the experiments began. The 26 SC standards were prepared in normal saline at concentrations of 0.5 mg/mL, 0.1 mg/mL, and 0.05 mg/mL. Each rat was weighed before administration, and the injection dose was adjusted based on body weight. The dosing volume for each rat was maintained at approximately 200 µL.
(§2) 162 Sprague-Dawley (SD) rats were randomly divided into 27 groups, with six rats in each group. The control group received an injection of normal saline, while the remaining groups were injected with 26 different types of SCs. The dosage administered was determined based on pre-experimental results, specifically selecting the dose that produced the highest level of metabolites in the blood samples collected 1 h after tail vein injection at concentrations of 0.5 mg/kg, 0.1 mg/kg, and 0.05 mg/kg, as shown in Table 6. Subsequently, tail vein administration was conducted at the specified dosage. The orbital venous blood was taken from the outer canthus of the rat with capillaries at 15 min and 1 h. Feces were collected after the blood. The rats were then sacrificed, and their brains and livers were dissected. Samples were immediately frozen in liquid nitrogen and stored at −80 °C until analysis.
(§3) For blood samples, 0.5 mL of each sample was mixed with 1.0 mL of acetonitrile. For brain samples, 0.2 g of tissue was combined with 0.5 mL of acetonitrile. For liver samples, 0.5 g of tissue was mixed with 0.5 mL of acetonitrile. For feces samples, 0.2 g of sample was combined with 1 mL of acetonitrile-water (3:1) for grinding and homogenization. Each mixture was sonicated for 40 min, allowed to precipitate at 4 °C for 30 min, and then centrifuged at 13,500 rpm for 10 min. The supernatant was filtered using a syringe filter (0.45 μm) for further testing.

[3] = Clinical symptoms of rats in metabolic model; format: in vivo, rat; conditions: SD rats, dose 0.05-0.5 mg/kg per Table 6
Protocol: as §1, §2

[4] = Metabolite identification, HLM incubation and rat model combined (UHPLC-Q-Exactive Orbitrap MS); parameters: species or system human; rat; conditions: for metabolite that was a common outcome in both models: HLM incubation and rat model; for Characteristic Metabolite: characteristic / defining metabolites by the screening criteria; for Number of Metabolites / Number of Phase I Metabolites / Number of Phase II Metabolites: in vitro (HLM) and in vivo (rat) models together
Protocol: as §1, §2, §3

[5] = pooled HLM and real urine samples; cited from earlier work
[6] = parameters: method as in PMID 32678962; conditions: in vitro and in vivo systems; cited from earlier work
[7] = following human liver microsomal incubation

Row | SMILES | Conversion Rate [1] | Phase II metabolites detected [1, 7] | metabolites detected [1, 7] | most prevalent Phase II metabolic reaction [1] | predominant Phase I metabolic reactions [1] | key Phase I metabolic reactions [2] | most significant Phase II metabolic processes [2] | Phase II metabolites identified ([2]; tail vein injection) | metabolic pathways associated ([2]; tail vein injection) | metabolites identified ([2]; tail vein injection) | metabolite that was a common outcome in both models [4] | Characteristic Metabolite [4] | Number of Metabolites [4] | Number of Phase I Metabolites [4] | Number of Phase II Metabolites [4] | also measured
1 | CCOC(=O)C(NC(=O)c1nn(CCCCCF)c2ccccc12)C(C)C (stereo not shown) [5F-EMB-PINACA] | 100.0% | one | eleven | glucuronidation | ester hydrolysis and hydroxylation | oxidative defluorination and hydroxylation | sulfation and arginine binding reactions | 3 | eight | 13 | ester hydrolysis metabolite | ester hydrolysis, ester hydrolysis, hydroxylated, and oxidative defluorination metabolites; also recorded: Ester hydrolysis, oxidative defluorination, ester hydrolysis, and hydroxylated metabolites | 23 | 19 | 4 | Animal manifestations after tail vein drug injection [3]: irritable, with unstable gait and tachypnea; also recorded: hematuria
2 | COC(=O)C(NC(=O)c1cn(CCCCCF)c2ccccc12)C(C)(C)C (stereo not shown) [5F-MDMB-PICA] | 95.9% | two | fourteen | glucuronidation | ester hydrolysis and hydroxylation | oxidative defluorination and hydroxylation | sulfation and glycoside binding reactions | five | seven | twelve | oxidative defluorination metabolite | ester hydrolysis, de-N-alkylation, and oxidative defluorination metabolites; also recorded: Ester hydrolysis, de-N-alkyl side chain, and oxidative defluorination metabolite | 25 | 18 | 7 | Phase I metabolites detected [1, 7]: twelve; metabolic pathways involved [1, 7]: eight; Phase I metabolites identified ([2]; tail vein injection): seven; most abundant stage I metabolites [5]: ester hydrolysis metabolites
3 | CC(C)(NC(=O)c1cn(CCCCCF)c2ncccc12)c1ccccc1 [CUMYL-5F-P7ICA] |  |  |  |  |  |  |  |  |  |  |  |  |  |  |  | Phase II metabolites detected [6]: sulfated and glucuronidated; most common Phase I reactions [6]: oxidative defluorination, monohydroxylation, ketone formation, and carboxylation
